From patent US11414406B2, “Antagonists of the muscarinic acetylcholine receptor M4” (Vanderbilt University, priority 2018, dated 2022)
Where two headings read alike, the source gives them in different places.

Biological target: T1, Human M4 (Homo sapiens, UniProt P08173)
T1 construct: expressed in transfected cells
T1 sequence (P08173 1-479): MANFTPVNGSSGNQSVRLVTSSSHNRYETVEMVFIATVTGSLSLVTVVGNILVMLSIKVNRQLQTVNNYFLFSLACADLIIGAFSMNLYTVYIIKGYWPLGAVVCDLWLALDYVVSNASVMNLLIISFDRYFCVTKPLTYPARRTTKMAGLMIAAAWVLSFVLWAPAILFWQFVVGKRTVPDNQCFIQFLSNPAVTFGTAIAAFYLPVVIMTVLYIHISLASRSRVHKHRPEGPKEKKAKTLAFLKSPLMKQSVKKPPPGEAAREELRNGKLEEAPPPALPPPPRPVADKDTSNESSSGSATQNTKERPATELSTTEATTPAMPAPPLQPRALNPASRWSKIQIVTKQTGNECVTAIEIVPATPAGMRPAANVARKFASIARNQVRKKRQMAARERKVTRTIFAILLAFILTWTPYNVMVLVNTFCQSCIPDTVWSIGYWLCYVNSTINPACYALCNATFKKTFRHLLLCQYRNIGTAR
Assay: mAChR M4 cell-based functional assay (calcium flux, decrease of EC80 acetylcholine response)
Conditions: for IC50: decrease of response to EC80 acetylcholine
Method: Human M4 cDNA, along with the chimeric G protein Gqi5, were transfected into Chinese hamster ovary (CHO-K1) cells purchased from the American Type Culture Collection using Lipofectamine2000. M4/Gqi5/CHO cells were grown in Ham's F-12 medium containing 10% heat-inactivated fetal bovine serum (FBS), 20 mM HEPES, 500 μg/mL G418 sulfate, and 200 μg/mL Hygromycin B.
For high throughput measurement of agonist-evoked increases in intracellular calcium, CHO-K1 cells stably expressing muscarinic receptors were plated in growth medium lacking G418 and hygromycin at 15,000 cells/20 μL/well in Greiner 384-well black-walled, tissue culture (TC)-treated, clear-bottom plates (VWR). Cells were incubated overnight at 37° C. and 5% CO2. The next day, cells were washed using an ELX 405 (BioTek) with assay buffer; the final volume was then aspirated to 20 μL. Next, 20 μL of a 2.3 μM stock of Fluo-4/acetoxymethyl ester (Invitrogen, Carlsbad, Calif.), prepared as a 2.3 mM stock in DMSO and mixed in a 1:1 ratio with 10% (w/v) Pluronic F-127 and diluted in assay buffer, was added to the wells and the cell plates were incubated for 50 min at 37° C. and 5% CO2. Dye was removed by washing with the ELX 405 and the final volume was aspirated to 20 μL. Compound master plates were formatted in a 10 point concentration-response curve (CRC) format (1:3 dilutions) in 100% DMSO with a starting concentration of 10 or 1 mM using a BRAVO liquid handler (Agilent). Test compound CRCs were then transferred to daughter plates (240 nL) using the Echo acoustic plate reformatter (Labcyte, Sunnyvale, Calif.) and then diluted into assay buffer (40 μL) to a 2× stock using a Thermo Fisher Combi (Thermo Fisher Scientific, Waltham, Mass.).
Calcium flux was measured using the Functional Drug Screening System (FDSS) 6000 or 7000 (Hamamatsu Corporation, Tokyo, Japan) as an increase in the fluorescent static ratio. Compounds were applied to cells (20 μL, 2×) using the automated system of the FDSS at 2 seconds into the protocol and the data were collected at 1 Hz. At 143 s, 10 μL of an EC20 concentration of the muscarinic receptor agonist acetylcholine was added (5×), followed by the addition of 12 μL of an EC80 concentration of acetylcholine at the 268 s time point (5×). Agonist activity was analyzed as a concentration-dependent increase in calcium mobilization upon compound addition. Positive allosteric modulator activity was analyzed as a concentration-dependent increase in the EC20 acetylcholine response. Antagonist activity was analyzed as a concentration-dependent decrease in the EC80 acetylcholine response; for the purposes of the tables herein, an IC50 (inhibitory concentration 50) was calculated as a concentration-dependent decrease of the response elicited by an EC80 concentration of acetylcholine. Concentration-response curves were generated using a four-parameter logistical equation in XLFit curve fitting software (HMS, Bridgewater, N.J.) for Excel (Microsoft, Redmond, Wash.) or Prism (GraphPad Software, Inc., San Diego, Calif.) or the Dotmatics software platform (Dotmatics, Bishop's Stortford, UK).
Compounds were synthesized as described above. Activity (IC50 and Emin) was determined in the inAChR M4 cell-based functional assay as described above and the data are shown in Table 2. The compound numbers correspond to the compound numbers used in Examples 1 and 2 and Tables 1 and 2.

[1] = M4/Gqi5/CHO-K1 cells, % ACh maximum at 30 μM, read-out: Emin (% ACh maximum at 30 μM)

| remaining activity at 30 µM [1] [%] | IC50 (M4/Gqi5/CHO-K1 cells) [nM] | SMILES | remaining activity at 30 µM (CHO-K1, read-out: Emin (% ACh maximum at 30 μM)) [%] |
| --- | --- | --- | --- |
| 15 | – | c1ccc2cc(-c3ccc(N[C@H]4[C@@H]5CN(CC6CCOCC6)C[C@@H]54)nn3)ccc2c1 [Compound 29, (1R,5S,6s)-N-[6-(2-naphthyl)pyridazin-3-yl]-3-(tetrahydropyran-4-ylmethyl)-3-azabicyclo[3.1.0]hexan-6-amine] | – |
| 8 | 1110 | Fc1ccc(Cl)c(-c2ccc(N[C@H]3[C@@H]4CN(CC5CCOCC5)C[C@@H]43)nn2)c1 [Compound 12, (1R,5S,6s)-N-[6-(2-chloro-5-fluoro-phenyl)pyridazin-3-yl]-3-(tetrahydropyran-4-ylmethyl)-3-azabicyclo[3.1.0]hexan-6-amine] | – |
| 17.8 | – | Fc1ccc(Cl)c(-c2ccc(CN[C@H]3[C@@H]4CN(CC5CCCCC5)C[C@@H]43)nn2)c1 [Compound 6, (1R,5S,6s)-N-((6-(2-chloro-5-fluoro-phenyl)pyridazin-3-yl)methyl)-3-(cyclohexylmethyl)-3-azabicyclo[3.1.0]hexan-6-amine] | – |
| 46 | – | Fc1ccc(F)c(-c2ccc(N[C@H]3[C@@H]4CN(Cc5ccccn5)C[C@@H]43)nn2)c1 [Compound 34, (1R,5S,6s)-N-[6-(2,5-difluorophenyl)pyridazin-3-yl]-3-(2-pyridylmethyl)-3-azabicyclo[3.1.0]hexan-6-amine] | – |
| 30 | 1660 | Fc1ccc(CN2C[C@@H]3[C@H](C2)[C@H]3Nc2ccc(-c3cc(F)ccc3Cl)nn2)cc1 [Compound 23, (1R,5S,6s)-N-[6-(2-chloro-5-fluoro-phenyl)pyridazin-3-yl]-3-[(4-fluorophenyl)methyl]-3-azabicyclo[3.1.0]hexan-6-amine] | – |
| 20.4 | – | CC(C)(C)CCN1C[C@@H]2[C@H](C1)[C@H]2NCc1ccc(-c2cc(F)ccc2Cl)nn1 [Compound 5, (1R,5S,6s)-N-((6-(2-chloro-5-fluoro-phenyl)pyridazin-3-yl)methyl)-3-(3,3-dimethylbutyl)-3-azabicyclo[3.1.0]hexan-6-amine] | – |
| 27 | – | Cn1cc2cc(-c3ccc(N[C@H]4[C@@H]5CN(CC6CCOCC6)C[C@@H]54)nn3)ccc2n1 [Compound 18, (1R,5S,6s)-N-[6-(2-methylindazol-5-yl)pyridazin-3-yl]-3-(tetrahydropyran-4-ylmethyl)-3-azabicyclo[3.1.0]hexan-6-amine] | – |
| 38 | – | Fc1ccccc1-c1ccc(N[C@H]2[C@@H]3CN(CC4CCOCC4)C[C@@H]32)nn1 [Compound 8, (1R,5S,6s)-N-[6-(2-fluorophenyl)pyridazin-3-yl]-3-(tetrahydropyran-4-ylmethyl)-3-azabicyclo[3.1.0]hexan-6-amine] | – |
| 29 | – | Fc1cccc(CN2C[C@@H]3[C@H](C2)[C@H]3Nc2ccc(-c3cc(F)ccc3Cl)nn2)c1 [Compound 22, (1R,5S,6s)-N-[6-(2-chloro-5-fluoro-phenyl)pyridazin-3-yl]-3-[(3-fluorophenyl)methyl]-3-azabicyclo[3.1.0]hexan-6-amine] | – |
| 11 | 2960 | Clc1ccccc1-c1ccc(N[C@H]2[C@@H]3CN(CC4CCOCC4)C[C@@H]32)nn1 [Compound 11, (1S,5R,6s)-N-[6-(2-chlorophenyl)pyridazin-3-yl]-3-(tetrahydropyran-4-ylmethyl)-3-azabicyclo[3.1.0]hexan-6-amine] | – |
| 28 | – | Fc1ccc(F)c(-c2ccc(N[C@H]3[C@@H]4CN(CC5CCOCC5)C[C@@H]43)nn2)c1 [Compound 16, (1R,5S,6s)-N-[6-(2,5-difluorophenyl)pyridazin-3-yl]-3-(tetrahydropyran-4-ylmethyl)-3-azabicyclo[3.1.0]hexan-6-amine] | – |
| 12 | – | Fc1ccc(-c2ccc(N[C@H]3[C@@H]4CN(CC5CCOCC5)C[C@@H]43)nn2)c(Cl)c1 [Compound 14, (1R,5S,6s)-N-[6-(2-chloro-4-fluoro-phenyl)pyridazin-3-yl]-3-(tetrahydropyran-4-ylmethyl)-3-azabicyclo[3.1.0]hexan-6-amine] | – |
| 5 | 100 | Cc1nn(C)cc1-c1ccc(N[C@H]2[C@@H]3CN(CC4CC5C=CC4C5)C[C@@H]32)nn1 (stereo partly drawn) [Compound 2, (1R,5S,6s)-3-(5-bicyclo[2.2.1]hept-2-enylmethyl)-N-[6-(1,3-dimethylpyrazol-4-yl)pyridazin-3-yl]-3-azabicyclo[3.1.0]hexan-6-amine] | – |
| 48 | – | FC(F)(F)c1ccc(-c2ccc(N[C@H]3[C@@H]4CN(CC5CCOCC5)C[C@@H]43)nn2)cn1 [Compound 20, (1R,5S,6s)-3-(tetrahydropyran-4-ylmethyl)-N-[6-[6-(trifluoromethyl)-3-pyridyl]pyridazin-3-yl]-3-azabicyclo[3.1.0]hexan-6-amine] | – |
| 27 | – | Fc1cccc(-c2ccc(N[C@H]3[C@@H]4CN(CC5CCOCC5)C[C@@H]43)nn2)c1F [Compound 31, (1R,5S,6s)-N-[6-(2,3-difluorophenyl)pyridazin-3-yl]-3-(tetrahydropyran-4-ylmethyl)-3-azabicyclo[3.1.0]hexan-6-amine] | – |
| 38 | – | Cc1cc(CN2C[C@@H]3[C@H](C2)[C@H]3Nc2ccc(-c3cc(F)ccc3F)nn2)nn1C [Compound 36, (1R,5S,6s)-N-[6-(2,5-difluorophenyl)pyridazin-3-yl]-3-[(1,5-dimethylpyrazol-3-yl)methyl]-3-azabicyclo[3.1.0]hexan-6-amine] | – |
| – | – | Cc1nn(C)cc1-c1ccc(CN[C@H]2[C@@H]3CN(CCC(C)(C)C)C[C@@H]32)nn1 [Compound 4, (1R,5S,6s)-N-((6-(1,3-dimethyl-1H-pyrazol-4-yl)pyridazin-3-yl)methyl)-3-(3,3-dimethylbutyl)-3-azabicyclo[3.1.0]hexan-6-amine] | 36.7 |
| 25 | – | Fc1cccc(-c2ccc(N[C@H]3[C@@H]4CN(CC5CCOCC5)C[C@@H]43)nn2)c1 [Compound 9, (1R,5S,6s)-N-[6-(3-fluorophenyl)pyridazin-3-yl]-3-(tetrahydropyran-4-ylmethyl)-3-azabicyclo[3.1.0]hexan-6-amine] | – |
| 5 | 139 | Cn1cc2cc(-c3ccc(N[C@H]4[C@@H]5CN(CCC(C)(C)C)C[C@@H]54)nn3)ccc2n1 [Compound 39, (1R,5S,6s)-3-(3,3-dimethylbutyl)-N-[6-(2-methylindazol-5-yl)pyridazin-3-yl]-3-azabicyclo[3.1.0]hexan-6-amine] | – |
| 40 | > 10000 | Cc1cc(CN2C[C@@H]3[C@H](C2)[C@H]3Nc2ccc(-c3ccc4nn(C)cc4c3)nn2)nn1C [Compound 38, (1R,5S,6s)-3-[(1,5-dimethylpyrazol-3-yl)methyl]-N-[6-(2-methylindazol-5-yl)pyridazin-3-yl]-3-azabicyclo[3.1.0]hexan-6-amine] | – |
